From patent US8058243B2, “Method for treating a brain cancer with ifenprodil” (HSC Research and Development Limited Partnership, priority 2006, dated 2011) come the findings set out here.

This test relates to murine neural precursor cells (neurosphere cultures). Description: HTS of LOPAC library against secondary neurosphere cultures, MTT proliferation assay at 3 μM, day 7 (z score, P value). The class given is cell-based, mouse.
Setting [1] is: LOPAC library screen at 3 μM, secondary neurosphere cultures, MTT.
Where [2] appears, read: LOPAC primary screen, neurosphere MTT proliferation, 3 μM, day 7.
Setting [3] is: yes/no: significantly inhibited neurosphere proliferation (P<0.01) in primary screen.
Where [4] appears, read: primary LOPAC screen, 3 μM, MTT, neurosphere proliferation.
The mark [5] stands for this setting: yes/no: significantly inhibited neurosphere proliferation in the primary screen.
Where [6] appears, read: LOPAC library screen, 3 μM, MTT, secondary neurosphere cultures, day 7.
The mark [7] stands for this setting: yes/no: significantly inhibited neurosphere proliferation (P<0.01) in the primary screen.
The mark [8] stands for this setting: yes = significantly inhibited neurosphere proliferation (P<0.01) in the primary screen.
[9] abbreviates: yes/no: significantly inhibited neurosphere proliferation in primary screen.
Setting [10] is: LOPAC screen, neurosphere MTT proliferation, 3 μM, day 7.
The mark [11] stands for this setting: LOPAC library screen, 3 μM, MTT, neurosphere cultures.

Structures can show the parent of a compound that is named as a salt. Where two headings read alike, the source gives them in different places.

On to `NS(=O)(=O)c1cc2c(cc1Cl)NCNS2(=O)=O` [Hydrochlorothiazide], for which the “Z Score” value under setting [1] was −0.212. Further, the Z score under setting [2] is reported as −0.212. The Activity result under setting [3] is reported as “no”.
Take `NCCNC(=O)Cc1ccc(NC(=O)Cc2ccc(Nc3ncnc4c3ncn4[C@@H]3O[C@H](CO)[C@@H](O)[C@H]3O)cc2)cc1` [Adenosine amine congener]: under setting [1], the “Z Score” value is recorded as −0.3345. Further, the Z score under setting [4] is −0.334. Further, under setting [5], the Activity entry is reported as “no”.
In the case of `CN1[C@@H]2CC[C@H]1C[C@@H](OC(c1ccccc1)c1ccccc1N)C2` (stereo partly shown) [Aminobenztropine], the “Z Score” value under setting [6] is reported as −1.455. Moreover, the Z score under setting [2] is on record as −1.455. Moreover, the Activity result under setting [7] is “no”.
For the compound `CNCCNS(=O)(=O)c1cccc2cnccc12.Cl.Cl` [H-8 dihydrochloride], the “Z Score” value is −1.583. The Z score under setting [2] is recorded as −1.583. Moreover, the Activity result under setting [8] is listed as “no”.
Regarding `COc1ccc(CCCOC(Cn2ccnc2)c2ccc(OC)cc2)cc1` (stereo not shown) [SKF 96365], the “Z Score” value is recorded as −4.497. Further, the Z score under setting [2] is recorded as −4.497. For the same compound, the Activity entry under setting [8] was “yes”.
As to `C[N+](C)(C)CC(=O)O` [Betaine hydrochloride], the “Z Score” value under setting [6] is recorded as −2.668. Besides, the Z score under setting [2] was −2.668. Also, the Activity entry under setting [7] was “yes”.
`CCCCCCCCCCCCCCCC(=O)OC(CC(=O)O)C[N+](C)(C)C.[Cl-]` (racemic) [Palmitoyl-DL-Camitine chloride] showed a Z score under setting [2] of 0.200. Also, the Activity result under setting [9] is “no”.
For the compound `CC(C)[C@H]1CN[C@H](C(=O)O)[C@H]1CC(=O)O` [Dihydrokainic acid], the “Z Score” value is 1.329. Moreover, the Z score under setting [10] is 1.329. For the same compound, under setting [3], the Activity result was “no”.
For the compound `CNCCCC1c2ccccc2C=Cc2ccccc21` [Protriptyline hydrochloride], the “Z Score” value under setting [11] came out at 0.7603. For the same compound, the Z score under setting [2] is 0.760. Further, the Activity entry under setting [9] is recorded as “no”.
For `CC(=O)Nc1nnc(S(N)(=O)=O)s1` [Acetazolamide], under setting [11], the “Z Score” value is 1.111. The compound further registered a Z score under setting [2] of 1.111. Also, the Activity result under setting [8] is “no”.
In the case of `Br.CCCN(CCC)[C@@H]1CCc2ccc(O)cc2C1` [R-(+)-7-Hydroxy-DPAT hydrobromide], the “Z Score” value is reported as −2.59. The compound further came in with a Z score under setting [2] of −2.590. Moreover, the Activity entry under setting [7] is given as “yes”.
Regarding `CC1(C)CCC2=C(O1)c1ccccc1C(=O)C2=O` [beta-Lapachone], under “168 h, 3 µM”, the “Z Score” value is −10.43 and the Z score is listed as −10.428. Further, the Activity entry under setting [8] was “yes”.
Regarding `CCOC(=O)C1=C(C)NC(C)=C(C(=O)OC)C1c1cccc(Cl)c1Cl` (stereo not shown) [Felodipine], the “Z Score” value under setting [1] is given as −0.9658. The same compound displayed a Z score under setting [2] of −0.966.
Compound `NCC(CC(=O)O)c1ccc(Cl)cc1` (racemic) [(±)-Baclofen] yielded a Z score under setting [10] of −1.069. Moreover, the Activity result under setting [3] is given as “no”.
On to S(−)-Atenolol, for which, under setting [11], the “Z Score” value is 0.617. Moreover, under setting [4], the Z score came out at 0.617. Besides, the Activity entry under setting [5] is given as “no”.
`CCCn1c(=O)c2[nH]c(C3CCCC3)nc2n(CCCOC(=O)c2ccc(S(=O)(=O)F)cc2)c1=O` [FSCPX]: the “Z Score” value was 0.7825. Under setting [2], this compound had a Z score of 0.782. Under setting [3], the Activity result was “no”.
Take `CN(C)C/C=C(/c1ccc(Br)cc1)c1cccnc1` [Zimelidine dihydrochloride]: the “Z Score” value under setting [1] is reported as −0.649. Under setting [4], this compound displayed a Z score of −0.649. Moreover, the Activity entry under setting [5] was “no”.
As to S(−)-p-Bromotetramisole oxalate, the “Z Score” value is recorded as −1.295. Also, the Z score under setting [2] is listed as −1.295. Also, the Activity entry under setting [9] is recorded as “no”.
With `CN(C)c1ccc(O)c2c1C[C@H]1C[C@H]3[C@H](N(C)C)C(O)=C(C(N)=O)C(=O)[C@@]3(O)C(O)=C1C2=O` [Minocycline hydrochloride], under setting [11], the “Z Score” value was found to be 0.4419. Also, the Z score under setting [2] was found to be 0.442.
Turning to `Cl.NCC(O)c1cc(O)c(O)cc1F` (stereo not shown) [6-Fluoronorepinephrine hydrochloride], the “Z Score” value was −1.168. Moreover, under setting [10], the Z score was −1.168. Besides, under setting [3], the Activity entry is on record as “no”.
As for `OC(CN1CCN(c2cccc(Cl)c2)CC1)C(c1ccccc1)c1ccccc1` (stereo not shown) [BRL 15572], the “Z Score” value worked out at 0.3117. In addition, under setting [2], the Z score stood at 0.312. Moreover, the Activity entry under setting [7] is “no”.
Take `NNCCc1ccccc1` [Phenelzine sulfate]: the “Z Score” value under setting [6] was −1.536. In addition, under setting [2], the Z score is listed as −1.536. Further, the Activity entry under setting [9] was “no”.
Take `CCCCCCCCCCCCCCCCOCC(COCC(F)(F)F)OP(=O)(O)OC` (stereo not shown) [MJ33]: the “Z Score” value is recorded as 1.364. The Z score under setting [2] amounted to 1.364. In addition, the Activity result under setting [8] is reported as “no”.
`CCCCN1CCC(COC(=O)c2cc(Cl)c(N)c3c2OCCO3)CC1.Cl` [SB 204070 hydrochloride]: the “Z Score” value is −5.886. The Z score under setting [2] is on record as −5.886. Also, under setting [7], the Activity result is given as “yes”.
For `CCC(=O)c1ccc2c(c1)N(CCCN(C)C)c1ccccc1S2` [Propionylpromazine hydrochloride], under setting [6], the “Z Score” value is −1.584. The same compound came in with a Z score under setting [2] of −1.584. The Activity entry under setting [7] is “no”.
As to `CC(C)(C)c1ccc(C(O)CCCN2CCC(C(O)(c3ccccc3)c3ccccc3)CC2)cc1` (stereo not shown) [Terfenadine], the Activity entry is listed as “no”. The “Z Score” value under setting [11] is recorded as 0.7553. The compound also showed a Z score under setting [4] of 0.755.
As for `OCCN(CCO)c1nc(N2CCCCC2)c2nc(N(CCO)CCO)nc(N3CCCCC3)c2n1` [Dipyridamole], the Activity result was “no”. For the same compound, under setting [1], the “Z Score” value is −0.7267. Moreover, the Z score under setting [10] is given as −0.727.
On to `C[C@]12C[C@H](O)[C@H]3[C@@H](CCC4=CC(=O)CC[C@@]43C)[C@@H]1CC[C@@H]2C(=O)CO` [Corticosterone], for which the Activity result is “no”. Besides, under setting [6], the “Z Score” value is −2.285. Further, the Z score under setting [4] is listed as −2.285.
Regarding `Cl.NCCCCC(=O)O` [5-Aminovaleric acid hydrochloride], under “168 h, 3 µM”, the “Z Score” value is recorded as −1.67 and the Z score is −1.670. In addition, the Activity result under setting [9] was “no”.
`CC(N)(Cc1ccc(O)cc1)C(=O)O` (racemic) [DL-alpha-Methyl-p-tyrosine]: the “Z Score” value is on record as −3.908. This compound gave a Z score under setting [2] of −3.908. Besides, the Activity result under setting [7] was “yes”.
On to `Cl.Cl.Clc1cccc(N2CCNCC2)c1` [1-(3-Chlorophenyl)piperazine dihydrochloride], for which the Z score under setting [10] is 0.952. In addition, the Activity result under setting [3] is given as “no”.
Take `CN1CCN(c2ccc3ccccc3n2)CC1.O=C(O)/C=C\C(=O)O.O=C(O)/C=C\C(=O)O` [Quipazine, N-methyl-, dimaleate]: the “Z Score” value under setting [1] is listed as −0.3254. This compound also yielded a Z score under setting [2] of −0.325. Moreover, the Activity result under setting [9] is “no”.
Consider `COc1ccc2c(c1)c(CC(=O)O)c(C)n2C(=O)c1ccc(Cl)cc1` [Indomethacin], for which the “Z Score” value under setting [1] is recorded as −0.3563. The same compound showed a Z score under setting [2] of −0.356. Besides, the Activity result under setting [7] is reported as “no”.
As for `Br.Oc1cc2c(c(Cl)c1O)CCNCC2c1ccccc1` (stereo not shown) [(B1)-6-Chloro-PB hydrobromide], the “Z Score” value is recorded as −2.267.
For the compound `NC(=O)CI` [Iodoacetamide], the “Z Score” value was −8.706. For the same compound, under setting [2], the Z score is listed as −8.706. Also, the Activity entry under setting [7] is listed as “yes”.
Turning to `CC(=O)OCC(=O)[C@@]1(O)CC[C@H]2[C@@H]3CCC4=CC(=O)CC[C@]4(C)[C@H]3C(=O)C[C@@]21C` [Cortisone 21-acetate], the “Z Score” value under setting [6] is on record as −2.218. This compound also showed a Z score under setting [10] of −2.218. The Activity result under setting [3] is listed as “no”.
Turning to `S=C([S-])OC1CC2CC1C1CCCC21.[K+]` [D-609 potassium], the “Z Score” value under setting [1] is listed as −0.8964. Moreover, the Z score under setting [4] is −0.896. Further, the Activity entry under setting [5] was “no”.
Consider `CC[C@H]1CN2CCc3cc(OC)c(OC)cc3[C@@H]2C[C@@H]1C[C@H]1NCCc2cc(OC)c(OC)cc21` [Emetine dihydrochloride hydrate], for which the Activity result is reported as “yes”. Moreover, the “Z Score” value under setting [6] was −10.63. The same compound gave a Z score under setting [2] of −10.633.
`CC(CCc1ccccc1)NC(C)C(O)c1ccc(O)cc1` (stereo not shown) [Nylidrin hydrochloride]: the “Z Score” value under setting [6] is on record as −1.375. The compound also had a Z score under setting [2] of −1.375. The Activity entry under setting [8] is on record as “no”.
Under setting [2], `Cl.N=C(N)NC(=O)Cc1c(Cl)cccc1Cl` [Guranfacine hydrochloride] displayed a Z score of 0.927. The Activity result under setting [3] is listed as “no”.
On to `C[C@H](Cc1ccc(OCC(=O)[O-])cc1)NC[C@H](O)c1cccc(Cl)c1.[Na+]` [BRL 37344 sodium], for which the “Z Score” value is −1.725. The compound also came in with a Z score under setting [10] of −1.725. For the same compound, under setting [3], the Activity result is on record as “no”.
Take `CN(C)c1nc(N(C)C)nc(N(C)C)n1` [Altretamine]: the “Z Score” value under setting [6] is recorded as −1.322. The Z score under setting [4] is listed as −1.322. Moreover, the Activity entry under setting [5] is recorded as “no”.
As to `CC[C@@H]1Cc2cc(O)ccc2C2=C1c1ccc(O)cc1C[C@H]2CC`, the “Z Score” value is listed as −1.053. Also, the Z score under setting [2] was −1.053. Further, under setting [7], the Activity entry was “no”.
Regarding `NCCC(=O)NCCc1c[nH]cn1` [Carcinine dihydrochloride], for the setting “168 h, 3 µM”, the “Z Score” value is listed as −1.023 and the Z score is on record as −1.023. Besides, the Activity result under setting [5] is reported as “no”.
Consider `CC(NC(C)(C)C)C(=O)c1cccc(Cl)c1` (stereo not shown) [Bupropion hydrochloride], for which the “Z Score” value under setting [11] was 0.2671. Further, the Z score under setting [10] stood at 0.267. Moreover, the Activity result under setting [3] is on record as “no”.
